Results as given in the NIST ThermoML archive (doi:10.1016/j.jct.2007.07.005).

Details: Fluid (supercritical or subcritical phases), vibrating tube

CCCCCO [pentan-1-ol]
Details	mass density [kg/m3]
312.96 K, 512 kPa	799.65
312.96 K, 1022 kPa	800.04
312.96 K, 1998 kPa	800.77
312.96 K, 3005 kPa	801.53
312.96 K, 4003 kPa	802.28
312.96 K, 5002 kPa	803.02
312.96 K, 6018 kPa	803.76
312.96 K, 6994 kPa	804.49
312.96 K, 8008 kPa	805.21
312.96 K, 9005 kPa	805.93
312.96 K, 10008 kPa	806.66
312.96 K, 11008 kPa	807.37
312.96 K, 12000 kPa	808.07
312.96 K, 13024 kPa	808.78
312.96 K, 13987 kPa	809.45
312.96 K, 15014 kPa	810.14
312.96 K, 15991 kPa	810.8
312.96 K, 17019 kPa	811.48
312.96 K, 17991 kPa	812.12
312.96 K, 19007 kPa	812.79
312.96 K, 19992 kPa	813.44
312.96 K, 21031 kPa	814.1
312.96 K, 22041 kPa	814.76
312.96 K, 23014 kPa	815.41
312.96 K, 24003 kPa	816.04
312.96 K, 25037 kPa	816.73
322.89 K, 520 kPa	792.06
322.89 K, 1010 kPa	792.47
322.89 K, 2005 kPa	793.27
322.89 K, 3007 kPa	794.07
322.89 K, 4005 kPa	794.86
322.89 K, 5018 kPa	795.63
322.89 K, 6001 kPa	796.42
322.89 K, 7016 kPa	797.2
322.89 K, 8020 kPa	797.97
322.89 K, 8997 kPa	798.71
322.89 K, 10001 kPa	799.47
322.89 K, 11005 kPa	800.21
322.89 K, 11996 kPa	800.95
322.89 K, 13002 kPa	801.68
322.89 K, 14013 kPa	802.4
322.89 K, 15005 kPa	803.11
322.89 K, 16014 kPa	803.82
322.89 K, 17001 kPa	804.51
322.89 K, 18016 kPa	805.21
322.89 K, 19012 kPa	805.89
322.89 K, 19992 kPa	806.56
322.89 K, 21036 kPa	807.26
322.89 K, 22003 kPa	807.92
322.89 K, 23024 kPa	808.61
322.89 K, 23994 kPa	809.26
322.89 K, 25023 kPa	810
332.79 K, 493 kPa	784.29
332.79 K, 1014 kPa	784.76
332.79 K, 2006 kPa	785.61
332.79 K, 3025 kPa	786.48
332.79 K, 4011 kPa	787.28
332.79 K, 5020 kPa	788.11
332.79 K, 6003 kPa	788.91
332.79 K, 6997 kPa	789.73
332.79 K, 8009 kPa	790.54
332.79 K, 8995 kPa	791.31
332.79 K, 9996 kPa	792.12
332.79 K, 11018 kPa	792.9
332.79 K, 11995 kPa	793.66
332.79 K, 13023 kPa	794.45
332.79 K, 13999 kPa	795.19
332.79 K, 15010 kPa	795.95
332.79 K, 16028 kPa	796.68
332.79 K, 17003 kPa	797.41
332.79 K, 18040 kPa	798.14
332.79 K, 19004 kPa	798.84
332.79 K, 20035 kPa	799.59
332.79 K, 21024 kPa	800.29
332.79 K, 21993 kPa	800.97
332.79 K, 23039 kPa	801.71
332.79 K, 24015 kPa	802.4
332.79 K, 25022 kPa	803.12
342.76 K, 505 kPa	776.31
342.76 K, 997 kPa	776.77
342.76 K, 1995 kPa	777.69
342.76 K, 3011 kPa	778.59
342.76 K, 4012 kPa	779.47
342.76 K, 5011 kPa	780.34
342.76 K, 6011 kPa	781.22
342.76 K, 7003 kPa	782.03
342.76 K, 8015 kPa	782.91
342.76 K, 9000 kPa	783.73
342.76 K, 10019 kPa	784.58
342.76 K, 11020 kPa	785.4
342.76 K, 12002 kPa	786.2
342.76 K, 13016 kPa	787.02
342.76 K, 14024 kPa	787.81
342.76 K, 15002 kPa	788.59
342.76 K, 16007 kPa	789.36
342.76 K, 17037 kPa	790.15
342.76 K, 17988 kPa	790.87
342.76 K, 19037 kPa	791.66
342.76 K, 20003 kPa	792.38
342.76 K, 21015 kPa	793.14
342.76 K, 22019 kPa	793.88
342.76 K, 23039 kPa	794.62
342.76 K, 24027 kPa	795.36
342.76 K, 25028 kPa	796.1
352.71 K, 508 kPa	768.15
352.71 K, 1011 kPa	768.66
352.71 K, 1995 kPa	769.61
352.71 K, 3014 kPa	770.57
352.71 K, 3998 kPa	771.49
352.71 K, 5022 kPa	772.45
352.71 K, 6012 kPa	773.35
352.71 K, 7006 kPa	774.26
352.71 K, 8024 kPa	775.17
352.71 K, 9005 kPa	776.05
352.71 K, 10016 kPa	776.94
352.71 K, 11026 kPa	777.81
352.71 K, 12001 kPa	778.65
352.71 K, 13002 kPa	779.5
352.71 K, 14026 kPa	780.35
352.71 K, 15000 kPa	781.18
352.71 K, 16005 kPa	781.98
352.71 K, 17023 kPa	782.81
352.71 K, 18003 kPa	783.59
352.71 K, 19049 kPa	784.43
352.71 K, 20035 kPa	785.2
352.71 K, 21002 kPa	785.96
352.71 K, 21995 kPa	786.73
352.71 K, 23020 kPa	787.52
352.71 K, 24045 kPa	788.32
352.71 K, 25009 kPa	789.05
362.59 K, 517 kPa	759.7
362.59 K, 1023 kPa	760.25
362.59 K, 2005 kPa	761.26
362.59 K, 3010 kPa	762.29
362.59 K, 3998 kPa	763.28
362.59 K, 5006 kPa	764.25
362.59 K, 6013 kPa	765.23
362.59 K, 7014 kPa	766.21
362.59 K, 8007 kPa	767.16
362.59 K, 9020 kPa	768.1
362.59 K, 10006 kPa	769.02
362.59 K, 10991 kPa	769.93
362.59 K, 12025 kPa	770.87
362.59 K, 13008 kPa	771.76
362.59 K, 13998 kPa	772.62
362.59 K, 15017 kPa	773.51
362.59 K, 16000 kPa	774.37
362.59 K, 17013 kPa	775.24
362.59 K, 18032 kPa	776.11
362.59 K, 19003 kPa	776.9
362.59 K, 20030 kPa	777.77
362.59 K, 20987 kPa	778.55
362.59 K, 22033 kPa	779.4
362.59 K, 23000 kPa	780.2
362.59 K, 24031 kPa	781.02
362.59 K, 25026 kPa	781.82
